The text below walks through data of paper PMC5751115, “Screening In Vitro Targets Related to Diabetes in Herbal Extracts from Peru: Identification of Active Compounds in Hypericum laricifolium Juss. by Offline High-Performance Liquid Chromatography” (International Journal of Molecular Sciences, 2017).

The nature of test [1]: ABTS free radical scavenging assay. The following applies: for IC50 / Antioxidants ABTS IC50 (μM): Table 3, isolated compounds, NA is not active; for IC50: read-out: Antioxidants ABTS IC50.
Protocol: The ABTS free radical scavenging activity was determined using ABTS radical cations (ABTS^+) with slight modifications [34]. Briefly, potassium persulfate (3.5 mM) and ABTS diammonium salt (2.0 mM) were mixed, diluted in distilled water, and subsequently allowed to stand in the dark at room temperature for 24 h before use, to allow free radical generation. To determine the scavenging activity, the absorbance was recorded at 750 nm using an EL-800 Universal microplate reader (BioTek Instrument Inc., Winooski, VT, USA) after incubating the sample solutions (10 µL, 1 mg/mL, 0.5 mg/mL in methanol) with ABTS solution (290 µL) for 10 min in a 96-well plate. Trolox was used as a positive control.
Test [2] is described as follows: DPPH free radical scavenging assay. The conditions noted are these: for IC50 / Antioxidants DPPH IC50 (μM): Table 3, isolated compounds, NA is not active; for IC50: read-out: Antioxidants DPPH IC50. The procedure: The DPPH free radical scavenging activity was determined as previously described with slight modifications. […] After 15 min incubation in the darkroom, the absorbance change at 570 nm was measured on a microplate reader (EL800 Universal Microplate reader, BioTek Instruments, Winooski, VT, USA). L-Ascorbic acid was used as positive control.
Background: The DPPH test is a chemical assay of radical scavenging.

The target of test [3] is rat lens aldose reductase (RLAR) (Rattus norvegicus, UniProt P07943). Kind of test: Rat lens aldose reductase (RLAR) assay. Type of test: biochemical. The conditions noted are these: for IC50 / AR IC50 (μM): Table 3, isolated compounds, means ± SD (n = 3), NA is not active; for IC50: read-out: AR IC50.
Protocol: The rat lenses (RL) were prepared as follows: the RL were removed from the eyes from 10-week-old Sprague-Dawley rats (weight = 250–280 g) and frozen until required. The rats were housed in a standardized laboratory environment with a 12 h light/12 h dark cycle at constant room temperature (22 ± 1 °C) and humidity (6 ± 5%) before experimentation. All animals had free access to water and food.
The AR inhibitory activities were evaluated using RLAR. Prior to analysis, the lenses were homogenized in 0.1 M phosphate buffer saline (pH 6.2) and subsequently centrifuged at 10,000× g for 30 min at 4 °C. The rat lens aldose reductase (RLAR)-containing supernatant was then collected. A substrate comprising 531 μL 0.1 M potassium buffer (pH 7.0), 90 μL NADPH solution (1.6 mM in potassium buffer), 90 μL RLAR homogenate (6.5 U/mg), 90 μL ammonium sulfate solution (4 M in potassium buffer), and 90 μL DL-glyceraldehyde (25 mM in potassium buffer) was placed into a 1.0-mL cuvette and mixed with 9 μL sample (1 mg/mL dissolved in DMSO). RLAR activity was assessed spectrophotometrically by measuring the decrease in NADPH absorption at 340 nm over a 4 min period.
Test [4] concerns the target T1, Human recombinant AR (HRAR) (Homo sapiens, UniProt P15121).
T1 construct: purchased Wako Pure Chemical Industries Co. (Osaka, Japan)
Kind of test: HRAR ultrafiltration-HPLC assay. The following applies: peak in HL 70% MeOH extract 0.1 mg/mL; HRAR 3.9 μM. The test is classed as binding. The procedure: The AR Inhibitors (ARIs) present in HL were profiled using a newly developed AR ultrafiltration assay. Specifically, the HL sample (final concentration = 0.1 mg/mL) was incubated with 0.6 M ammonium sulfate and 3.9 μM HRAR (Human recombinant AR) in a total volume of 300 μL at 37 °C for 30 min. The incubated mixture was then filtered by centrifugation at 5167× g for 30 min at room temperature using a Microcon YM-10 centrifugal filter unit. The filtrate was subsequently analyzed by HPLC (Section 3.9). The sample incubated without HRAR was used as control.

Test [5] is described as follows: Offline ABTS-HPLC analysis. The following applies: peak area reduction in HL 70% MeOH extract after ABTS. The procedure: Offline ABTS-HPLC was investigated by modifying a previously reported protocol. Briefly, 10 μL of 70% methanol extract from HL (20 mg/mL) was mixed with 140 μL ABTS solution that was prepared one day in advance. The mixture was then incubated at room temperature for 10 min and subsequently filtered through a 0.45 μm filter. The filtrate was analyzed by HPLC (Section 3.9). The methanol extract of HL (20 mg/mL in MeOH was used as control. The detector monitored the eluent at a wavelength of 300 nm and the % QR was calculated as described in Section 3.11.

For test [6], the system named is α-glucosidase. Kind of test: α-Glucosidase ultrafiltration-HPLC assay. The test is classed as binding. The conditions noted are these: peak in HL 70% MeOH extract 0.1 mg/mL; α-glucosidase 3.9 μM. The procedure:
The α-glucosidase present in the HL was profiled using a newly developed α-glucosidase ultrafiltration assay. Specifically, the HL 30 μL sample (final concentration = 0.1 mg/mL) was incubated with α-glucosidase (3.9 μM) in PBS (300 μL, pH 7.0) at 37 °C for 30 min. The incubated mixture was then filtered by centrifugation at 5167× g for 30 min at room temperature using a Microcon YM-10 centrifugal filter unit (Millipore, Bedford, MA, USA). The filtrate was subsequently analyzed by HPLC on a Dionex system (Dionex, Sunnyvale, CA, USA) consisting of a P850 pump, an ASI-100 automated sample injector, a Synergi Hydro-RP 80A column (150 mm × 4.6 mm, 4 μm; Phenomenex, Torrance, CA, USA) maintained at 30 °C, and a UVD170S detector. The injection volume was 10 μL and the flow rate of the mobile phase was 0.7 mL/min. The mobile phase compositions were as follows: 0.1% trifluoroacetic acid (A-line) and methanol (B-line). The gradient elution system was modified as follows: 0–35 min, starting with 5% B-line, programmed to reach 40% B-line at 15 min using a linear gradient, followed by 100% B-line from 15–35 min. The detector monitored the eluent at a wavelength of 254 nm. The sample incubated without α-glucosidase was used as control.

The subject of test [7] is α-glucosidase. The experiment in a line: α-Glucosidase inhibitory assay. Type of test: biochemical. The method, then:
α-Glucosidase inhibitory activity was determined using a previously reported method with slight modifications. The initial concentration of the enzyme solution was 0.015 mg/mL in 0.1 M phosphate buffer (pH 6.9) and the initial concentration of the substrate solution was 1 mM in the same phosphate buffer. The enzyme solution was mixed in a clear 96-well microplate (flat bottom) and the reaction was initiated by the addition of the substrate to the solution. The plates were incubated at 37 °C for 10 min.

The nature of test [8]: Offline DPPH-HPLC analysis. The conditions noted are these: peak area reduction in HL 70% MeOH extract after DPPH. The procedure:
The DPPH radical assay was modified by an offline DPPH-HPLC assay. […] After incubation (15 min) in the dark room, the mixture was filtered through a 0.45-μm membrane and subsequently analyzed by HPLC (Section 3.9). The sample incubated with methanol was used as control. The decreases in peak area were expressed as the % quantitative reduction (% QR), calculated from the equation: % QR = (A − B)/A × 100%, where A and B are the HPLC peak areas of the compound incubated without and with the DPPH methanol solution, respectively.

Setting [9] is: means ± SD (n = 3), listed as Quercetin (7).

As to `O=C(O)c1ccc(O)c(O)c1` [Compound 1, protocatechuic acid], the values for the IC50 in test [1] (means ± SD (n = 3)), in test [2] (means ± SD (n = 3)) and in test [3] were 9.7 ± 0.9 µM, 263.4 ± 0.2 µM and 16.9 ± 1.9 µM, respectively.

Turning to `O=C(O)[C@H]1O[C@@H](Oc2c(-c3ccc(O)cc3)oc3cc(O)cc(O)c3c2=O)[C@H](O)[C@@H](O)[C@@H]1O` [Compound 6, kaempferol 3-O-glucuronide], the “total binding degree (TBD), HRAR ultrafiltration-HPLC” value in test [4] amounted to 30%. Also, the IC50 (as a rule, the concentration at which inhibition is half-maximal) in test [1] (means ± SD (n = 3)) came out at 11 ± 0.2 µM; in test [2] (means ± SD (n = 3)), 58.8 ± 2.1 µM; in test [3], 6 ± 1.1 µM.

As for `Cc1c(C)c2c(c(C)c1O)CCC(C)(C(=O)O)O2` (centres unmarked) [Trolox, 6-hydroxy-2,5,7,8-tetramethylchroman-2-carboxylic acid, reference compound], the “ABTS IC50” value in test [1] (Table 2, means ± SD (n = 3)) was 4.6 ± 0.1 µg/mL. Besides, the “ABTS Inhibition (%)” value in test [1] (Table 2, trolox at 17 μg/mL) amounted to 100 ± 0.1%. The IC50 in test [1] (means ± SD (n = 3)) was determined as 18.8 ± 0.5 µM.

As for `O=c1c(O)c(-c2ccc(O)c(O)c2)oc2cc(O)cc(O)c12` [Compound 7, quercetin], in test [5], the “quantitative reduction percentage (QR), offline ABTS-HPLC” value (“quantitative reduction percentage (QR)” for short) is over 80%. Also, the IC50 in test [1] (setting [9]) was 0.33 ± 0.6 µM; in test [2] (setting [9]), 0.33 µM. Moreover, the “total binding degree (TBD), α-glucosidase ultrafiltration-HPLC” value in the test with α-glucosidase [6] worked out at 61.57%. Moreover, the α-glucosidase percentage inhibition with α-glucosidase [7] (isolated compound, Figure 2, 50 μg/mL) amounted to 91%. The “% quantitative reduction (QR), offline DPPH-HPLC” value in test [8] is recorded as 42.8%.

Take `COc1cc(C(=O)O)ccc1O` [Compound 4, vanillic acid]: the “Antioxidants ABTS IC50 (μM)” value in test [1] (means ± SD (n = 3)) is “inactive”. Also, the “Antioxidants DPPH IC50 (μM)” value in test [2] (means ± SD (n = 3)) was “inactive”. The “AR IC50 (μM)” value in test [3] is “inactive”.

Regarding `O=C1O[C@H]([C@@H](O)CO)C(O)=C1O` [L-Ascorbic, L-ascorbic acid, reference compound], the “DPPH Inhibition (%)” value in test [2] (Table 2, L-ascorbic acid at 71 μg/mL) is reported as 99.1 ± 0%. In addition, the “DPPH IC50” value in test [2] (Table 2, means ± SD (n = 3)) is 17.6 ± 0.1 µg/mL.

`O=C(O)c1ccc(O)cc1` [Compound 2, p-hydroxybenzoic acid]: the “Antioxidants ABTS IC50 (μM)” value in test [1] (means ± SD (n = 3)) is “inactive”. The “Antioxidants DPPH IC50 (μM)” value in test [2] (means ± SD (n = 3)) is “inactive”. Moreover, the “AR IC50 (μM)” value in test [3] is “inactive”.

Consider `O=c1c(O)c(-c2ccc(O)cc2)oc2cc(O)cc(O)c12` [Compound 8, kaempferol], for which, in test [4], the “total binding degree (TBD), HRAR ultrafiltration-HPLC” value is recorded as under 20%. Moreover, in test [5], the “quantitative reduction percentage (QR)” value worked out at 54%. The results for the IC50 in test [1] (means ± SD (n = 3)), in test [2] (means ± SD (n = 3)) and in test [3] were 191.8 ± 1.1 µM, 326 ± 3.3 µM and 9.7 ± 0.5 µM, respectively. For the same molecule, the “% quantitative reduction (QR), offline DPPH-HPLC” value in test [8] is listed as 51%.

For the molecule `O=C(O)/C=C/c1ccc(O)c(O)c1` [Compound 5, caffeic acid], the “quantitative reduction percentage (QR)” value in test [5] stood at 76%. Also, the figures for the IC50 in test [1] (means ± SD (n = 3)), in test [2] (means ± SD (n = 3)) and in test [3] were 7.2 ± 1.1 µM, 47.2 ± 0.1 µM and 28.3 ± 0.9 µM, respectively.

Turning to `C[C@H]1O[C@H](O[C@H]2[C@H](O)[C@@H](O)[C@@H](O[C@H]3[C@H](O)[C@@H](O)C(O)O[C@@H]3CO)O[C@@H]2CO)[C@H](O)[C@@H](O)[C@@H]1N[C@H]1C=C(CO)[C@@H](O)[C@H](O)[C@H]1O` (some centres unmarked) [Acarbose, acarbose, reference compound], the “α-Glucosidase Inhibition (%)” value in the test on α-glucosidase [7] (Table 2, 500 μg/mL) is reported as 55.82 ± 2.3%.

In the case of `O=c1c(O)c(-c2ccc(O)c(O)c2)oc2cc(O)cc(O)c12` [Quercetin, quercetin, reference compound], in test [3] (read-out: AR Inhibition (%)), the inhibition (as a rule, the percentage by which the read-out fell short of the control) at 10 µg/mL is 83.7 ± 2.6%.

In the case of `O=C(/C=C/c1ccc(O)c(O)c1)O[C@@H]1C[C@](O)(C(=O)O)C[C@@H](O)[C@H]1O` [Compound 3, chlorogenic acid], the “total binding degree (TBD), HRAR ultrafiltration-HPLC” value in test [4] is recorded as ~ 20%. In test [3], the IC50 turned out to be 0.23 µM.
